{
  "source": "patent US11753409B2",
  "about": "“Crystalline salts of a B-RAF kinase inhibitor” (Xynomic Pharmaceuticals, Inc., priority 2017, dated 2023)",
  "origin": "cited, not measured here",
  "key": {"wild-type cells": {"system": "wild-type cells", "conditions": "at 1,000 nmol/L; cited from earlier work"}, "[1]": {"system": "human B-RAF-mutant melanoma cells", "conditions": "cited from earlier work"}, "[2]": {"conditions": "rats, up to 60 mg/kg daily for 2 weeks; cited from earlier work"}, "A375 melanoma": {"system": "A375 melanoma", "conditions": "particularly in combination with trametinib; cited from earlier work"}, "[3]": {"system": "B-RAF-mutant melanomas and colorectal carcinomas", "conditions": "cited from earlier work"}, "[4]": {"conditions": "treated mice; cited from earlier work"}},
  "data": [
    {"smiles": "CCCS(=O)(=O)Nc1ccc(F)c(-n2cc(-c3cncnc3)c3nc(N(C)C4CCN(CC)CC4)ccc32)c1F", "note": "[BI 882370, N-(3-(5-((1-ethylpiperidin-4-yl)(methyl)amino)-3-(pyrimidin-5-yl)-1H-pyrrolo[3,2-b]pyridin-1-yl)-2,4-difluorophenyl)propane-1-sulfonamide]", "values": [
      {"measurement": "Effect on wild-type cells", "setting": "wild-type cells", "result": "not affected"},
      {"measurement": "Potency, inhibition of proliferation", "setting": "[1]", "result": "1 to 10", "unit": "nM"},
      {"measurement": "Potency relative to vemurafenib", "setting": "[1]; higher potency than vemurafenib", "result": 100, "unit": "times"},
      {"measurement": "Toxicity (clinical chemistry, hematology, pathology, toxicogenomics)", "setting": "[2]", "result": "lacked toxicity"},
      {"measurement": "Activity in vemurafenib-resistant model", "setting": "A375 melanoma", "result": "active"},
      {"measurement": "Efficacy compared with vemurafenib, dabrafenib, or trametinib", "setting": "[3]; 25 mg/kg twice daily, oral", "result": "superior efficacy"},
      {"measurement": "Efficacy in mouse models", "setting": "[3]; solution administered orally", "result": "efficacious"},
      {"measurement": "Body weight loss or clinical signs of intolerability", "setting": "[4]", "result": "did not show any body weight loss or clinical signs of intolerability"},
      {"measurement": "Pathologic changes in several major organs, including skin", "setting": "[4]", "result": "no pathologic changes were observed"}
    ]}
  ]
}
